ChEMBL document CHEMBL1141502, “Synthesis of hybrid acetogenins, alpha,beta-unsaturated-gamma-lactone-free nitrogen-containing heterocyclic analogues, and their cytotoxicity against human cancer cell lines” (2008)

What was measured:
Format in all cases: functional
[1] = Antiproliferative activity against human HBC4 cells by sulforhodamine B assay relative to control
[2] = Antiproliferative activity against human BSY1 cells by sulforhodamine B assay relative to control; conditions: BSY-1
[3] = Antiproliferative activity against human HBC5 cells by sulforhodamine B assay relative to control
MCF7 = assay: Antiproliferative activity against human MCF7 cells by sulforhodamine B assay relative to control
MDA-MB-231 = assay: Antiproliferative activity against human MDA-MB-231 cells by sulforhodamine B assay relative to control
U-251 = assay: Antiproliferative activity against human U251 cells by sulforhodamine B assay relative to control
SF-268 = assay: Antiproliferative activity against human SF268 cell by sulforhodamine B assay relative to control
SF-295 = assay: Antiproliferative activity against human SF295 cells by sulforhodamine B assay relative to control
SF-539 = assay: Antiproliferative activity against human SF539 cells by sulforhodamine B assay relative to control
SNB-75 = assay: Antiproliferative activity against human SNB75 cells by sulforhodamine B assay relative to control
SNB-78 = assay: Antiproliferative activity against human SNB78 cells by sulforhodamine B assay relative to control
HCC 2998 = assay: Antiproliferative activity against human HCC2998 cells by sulforhodamine B assay relative to control
KM12 = assay: Antiproliferative activity against human KM12 cells by sulforhodamine B assay relative to control
HT-29 = assay: Antiproliferative activity against human HT29 cells by sulforhodamine B assay relative to control
HCT-15 = assay: Antiproliferative activity against human HCT15 cells by sulforhodamine B assay relative to control
HCT-116 = assay: Antiproliferative activity against human HCT116 cells by sulforhodamine B assay relative to control
NCI-H23 = assay: Antiproliferative activity against human NCI-H23 cells by sulforhodamine B assay relative to control
NCI-H226 = assay: Antiproliferative activity against human NCI-H226 cells by sulforhodamine B assay relative to control
NCI-H522 = assay: Antiproliferative activity against human NCI-H522 cells by sulforhodamine B assay relative to control
NCI-H460 = assay: Antiproliferative activity against human NCI-H460 cells by sulforhodamine B assay relative to control
A549 = assay: Antiproliferative activity against human A549 cells by sulforhodamine B assay relative to control
DMS-273 = assay: Antiproliferative activity against human DMS273 cells by sulforhodamine B assay relative to control
DMS-114 = assay: Antiproliferative activity against human DMS114 cells by sulforhodamine B assay relative to control
LOX IMVI = assay: Antiproliferative activity against human LOX IMVI cells by sulforhodamine B assay relative to control
[4] = Antiproliferative activity against human OVACR3 cells by sulforhodamine B assay relative to control
[5] = Antiproliferative activity against human OVACR4 cells by sulforhodamine B assay relative to control
[6] = Antiproliferative activity against human OVACR5 cells by sulforhodamine B assay relative to control
[7] = Antiproliferative activity against human OVACR8 cells by sulforhodamine B assay relative to control
SK-OV-3 = assay: Antiproliferative activity against human SKOV3 cells by sulforhodamine B assay relative to control
[8] = Antiproliferative activity against human RXF631L cells by sulforhodamine B assay relative to control; conditions: RXF 631
ACHN = assay: Antiproliferative activity against human ACHN cells by sulforhodamine B assay relative to control
St-4 = assay: Antiproliferative activity against human St4 cells by sulforhodamine B assay relative to control
[9] = Antiproliferative activity against human MKN1 cells by sulforhodamine B assay relative to control; conditions: MKN-1
MKN-7 = assay: Antiproliferative activity against human MKN7 cells by sulforhodamine B assay relative to control
MKN-28 = assay: Antiproliferative activity against human MKN28 cells by sulforhodamine B assay relative to control
MKN-45 = assay: Antiproliferative activity against human MKN45 cells by sulforhodamine B assay relative to control
MKN-74 = assay: Antiproliferative activity against human MKN74 cells by sulforhodamine B assay relative to control
DU-145 = assay: Antiproliferative activity against human DU145 cells by sulforhodamine B assay relative to control
PC-3 = assay: Antiproliferative activity against human PC3 cells by sulforhodamine B assay relative to control

Row | SMILES | GI50 [1] | GI50 [2] | GI50 [3] | GI50 (MCF7) | GI50 (MDA-MB-231) | GI50 (U-251) | GI50 (SF-268) | GI50 (SF-295) | GI50 (SF-539) | GI50 (SNB-75) | GI50 (SNB-78) | GI50 (HCC 2998) | GI50 (KM12) | GI50 (HT-29) | GI50 (HCT-15) | GI50 (HCT-116) | GI50 (NCI-H23) | GI50 (NCI-H226) | GI50 (NCI-H522) | GI50 (NCI-H460) | also measured
1 | CCCCCCCCCCCC[C@@H](O)[C@H]1CC[C@H]([C@H](O)CCCCCCCCCCCCc2cncnc2)O1 | 56 µM | 34 µM | 17 µM | 34 µM | > 100 µM | 61 µM | 49 µM | 25 µM | 28 µM | 28 µM | 52 µM | 28 µM | 36 µM | 33 µM | 47 µM | 28 µM | 11 µM | 22 µM | 13 µM | 40 µM | GI50 (A549): 42 µM; GI50 (DMS-273): 28 µM; GI50 (DMS-114): 4.1 µM; GI50 (LOX IMVI): 16 µM; GI50 [4]: 29 µM; GI50 [5]: 22 µM; GI50 [6]: > 100 µM; GI50 [7]: 29 µM; GI50 (SK-OV-3): 33 µM; GI50 [8]: > 43 µM; GI50 (ACHN): 40 µM; GI50 (St-4): 39 µM; GI50 [9]: 32 µM; GI50 (MKN-7): 6.1 µM; GI50 (MKN-28): 13 µM; GI50 (MKN-45): 50 µM; GI50 (MKN-74): 38 µM; GI50 (DU-145): 90 µM; GI50 (PC-3): 35 µM
2 | CCCCCCCCCCCC[C@@H](O)[C@H]1CC[C@H]([C@H](O)CCCCCCCCCCCCc2ccnn2C)O1 | > 100 µM | 32 µM | 69 µM | 27 µM | 32 µM | > 100 µM | > 100 µM | 24 µM | 37 µM | > 100 µM | > 100 µM | 80 µM | 71 µM | 76 µM | > 100 µM | 9.2 µM | 0.91 µM | 52 µM | 3.8 µM | > 100 µM | GI50 (A549): 31 µM; GI50 (DMS-273): 49 µM; GI50 (DMS-114): 0.55 µM; GI50 (LOX IMVI): > 100 µM; GI50 [4]: > 100 µM; GI50 [5]: 37 µM; GI50 [6]: > 100 µM; GI50 [7]: > 100 µM; GI50 (SK-OV-3): 77 µM; GI50 [8]: > 100 µM; GI50 (ACHN): 88 µM; GI50 (St-4): 65 µM; GI50 [9]: > 100 µM; GI50 (MKN-7): 6.2 µM; GI50 (MKN-28): 4.4 µM; GI50 (MKN-45): > 100 µM; GI50 (MKN-74): 23 µM; GI50 (DU-145): > 100 µM; GI50 (PC-3): > 100 µM
3 | CCCCCCCCCCCC[C@@H](O)[C@H]1CC[C@H]([C@H](O)CCCCCCCCCCCCc2cnn(C)c2)O1 | > 100 µM | > 100 µM | > 100 µM | > 100 µM | > 100 µM | > 100 µM | > 100 µM | 24 µM | 37 µM | 23 µM | 81 µM | > 100 µM | > 100 µM | > 100 µM | > 100 µM | 70 µM | 13 µM | 56 µM | 12 µM | > 100 µM | GI50 (A549): > 100 µM; GI50 (DMS-273): > 100 µM; GI50 (DMS-114): 2.1 µM; GI50 (LOX IMVI): 9.5 µM; GI50 [4]: > 100 µM; GI50 [5]: > 100 µM; GI50 [6]: > 100 µM; GI50 [7]: > 100 µM; GI50 (SK-OV-3): > 100 µM; GI50 [8]: > 100 µM; GI50 (ACHN): > 100 µM; GI50 (St-4): > 100 µM; GI50 [9]: > 100 µM; GI50 (MKN-7): 5.4 µM; GI50 (MKN-28): 19 µM; GI50 (MKN-45): > 100 µM; GI50 (MKN-74): > 100 µM; GI50 (DU-145): > 100 µM; GI50 (PC-3): > 100 µM
4 | CCCCCCCCCCCC[C@@H](O)[C@H]1CC[C@H]([C@H](O)CCCCCCCCCCCCc2ncccn2)O1 | > 100 µM | > 100 µM | 50 µM | 79 µM | > 100 µM | > 100 µM | > 100 µM | > 100 µM | 41 µM | 32 µM | > 100 µM | > 100 µM | > 100 µM | > 100 µM | > 100 µM | > 100 µM | 28 µM | 30 µM | 17 µM | > 100 µM | GI50 (A549): > 100 µM; GI50 (DMS-273): 92 µM; GI50 (DMS-114): 16 µM; GI50 (LOX IMVI): 12 µM; GI50 [4]: > 100 µM; GI50 [5]: 38 µM; GI50 [6]: > 100 µM; GI50 [7]: > 100 µM; GI50 (SK-OV-3): 74 µM; GI50 [8]: > 100 µM; GI50 (ACHN): > 100 µM; GI50 (St-4): > 100 µM; GI50 [9]: > 100 µM; GI50 (MKN-7): 27 µM; GI50 (MKN-28): 48 µM; GI50 (MKN-45): > 100 µM; GI50 (MKN-74): 69 µM; GI50 (DU-145): > 100 µM; GI50 (PC-3): > 68 µM
5 | CCCCCCCCCCCC[C@@H](O)[C@H]1CC[C@H]([C@H](O)CCCCCCCCCCCCc2cnc(N)nc2)O1 | > 100 µM | > 100 µM | > 100 µM | > 100 µM | > 100 µM | > 100 µM | > 100 µM | 56 µM | 62 µM | 27 µM | > 100 µM | 89 µM | > 100 µM | 90 µM | > 100 µM | > 100 µM | 36 µM | 44 µM | 22 µM | > 100 µM | GI50 (A549): > 100 µM; GI50 (DMS-273): > 100 µM; GI50 (DMS-114): 4.8 µM; GI50 (LOX IMVI): 58 µM; GI50 [4]: > 100 µM; GI50 [5]: > 100 µM; GI50 [6]: > 100 µM; GI50 [7]: 90 µM; GI50 (SK-OV-3): 56 µM; GI50 [8]: > 100 µM; GI50 (ACHN): > 100 µM; GI50 (St-4): > 100 µM; GI50 [9]: > 100 µM; GI50 (MKN-7): 9.4 µM; GI50 (MKN-28): 40 µM; GI50 (MKN-45): > 100 µM; GI50 (MKN-74): > 100 µM; GI50 (DU-145): > 100 µM; GI50 (PC-3): > 100 µM
6 | CCCCCCCCCCCC[C@@H](O)[C@H]1CC[C@H]([C@H](O)CCCCCCCCCCCCC2=C[C@H](C)OC2=O)O1 [REL-SOLAMIN] | > 100 µM | > 100 µM | > 100 µM | 71 µM | > 100 µM | > 100 µM | > 100 µM | 40 µM | > 100 µM | > 100 µM | > 100 µM | > 100 µM | > 100 µM | > 100 µM | > 100 µM | > 100 µM | 73 µM | > 100 µM | 58 µM | > 100 µM | GI50 (A549): > 100 µM; GI50 (DMS-273): > 100 µM; GI50 (DMS-114): 4.3 µM; GI50 (LOX IMVI): 29 µM; GI50 [4]: > 100 µM; GI50 [5]: > 100 µM; GI50 [6]: > 100 µM; GI50 [7]: > 100 µM; GI50 (SK-OV-3): > 100 µM; GI50 [8]: > 100 µM; GI50 (ACHN): > 100 µM; GI50 (St-4): > 100 µM; GI50 [9]: > 100 µM; GI50 (MKN-7): 13 µM; GI50 (MKN-28): 14 µM; GI50 (MKN-45): > 100 µM; GI50 (MKN-74): > 100 µM; GI50 (DU-145): > 100 µM; GI50 (PC-3): > 100 µM
